Experimental data from patent publication US20080227780A1, “SOLUBLE EPOXIDE HYDROLASE INHIBITORS” (Arete Therapeutics, Inc., priority 2007, published 2008).

System: soluble epoxide hydrolase (sEH)
Test: Fluorescent assay for soluble epoxide hydrolase (CMNPC substrate), percent inhibition at the recited concentration
Type: biochemical
Details: Inhibition Conc. 200 nM
Summary of the method: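 Purified recombinant baculovirus-expressed sEH in 25 mM Bis/Tris HCl pH 7.0 with 0.1 mg/mL BSA; inhibitor serially diluted and preincubated with enzyme 5 min at 30 °C. Reaction started with 5 μM (final) substrate; fluorescence (ex 330/em 465 nm) read every 30 s for 10 min, and velocities give % inhibition.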

SMILES	% inh.
CC(=O)N1CCC(NC(=O)N2CCC(NC(=O)NC34CC5CC(CC(C5)C3)C4)CC2)CC1 [Compound 7-57, N-(1-acetylpiperidin-4-yl)-4-(3-adamantylureido)piperidine-1-carboxamide]	90%
CC(=O)N1CCC(NC(=O)NC23CCC(C)(CC2)CC3)CC1 [Compound 7-58, 1-(1-acetylpiperidin-4-yl)-3-(4-methylbicyclo[2.2.2]octan-1-yl)urea]	84%
O=C(NC1CCN(C(=O)CCO)CC1)NC12CC3CC(CC(C3)C1)C2 [Compound 7-59, 1-adamantyl-3-(1-(3-hydroxypropanoyl)piperidin-4-yl)urea]	86%
CC(C)(C)OC(=O)N1CCC(NC(=O)NC2CCCCCCC2)CC1 [Compound 7-64, tert-butyl 4-(3-cyclooctylureido)piperidine-1-carboxylate]	97%
O=C(Nc1ccc(OC(F)(F)F)cc1)NC1CCN(C(=O)CCCO)CC1 [Compound 7-71, 1-(1-(4-hydroxybutanoyl)piperidin-4-yl)-3-(4-(trifluoromethoxy)phenyl)urea]	84%
CC(C)(C)CC(=O)N1CCC(NC(=O)NC23CC4CC(CC(C4)C2)C3)CC1 [Compound 7-72, 1-adamantyl-3-(1-(3,3-dimethylbutanoyl)piperidin-4-yl)urea]	96%
O=C(NC1CCN(C(=O)CCCO)CC1)NC12CC3CC(CC(C3)C1)C2 [Compound 7-73, 1-adamantyl-3-(1-(4-hydroxybutanoyl)piperidin-4-yl)urea]	94%
O=C(NC1CCN(S(=O)(=O)CCCO)CC1)NC12CC3CC(CC(C3)C1)C2 [Compound 7-74, 1-adamantyl-3-(1-(3-hydroxypropylsulfonyl)piperidin-4-yl)urea]	99%
O=C(Nc1ccc(OC(F)(F)F)cc1)NC1CCN(S(=O)(=O)CCCO)CC1 [Compound 7-75, 1-(1-(3-hydroxypropylsulfonyl)piperidin-4-yl)-3-(4-(trifluoromethoxy)phenyl)urea]	100%
COCC(=O)N1CCC(NC(=O)NC23CC4CC(CC(C4)C2)C3)CC1 [Compound 7-76, 1-adamantyl-3-(1-(2-methoxyacetyl)piperidin-4-yl)urea]	94%
CC(C)(C)S(=O)(=O)N1CCC(NC(=O)Nc2ccc(OC(F)(F)F)cc2)CC1 [Compound 7-77, 1-(1-(tert-butylsulfonyl)piperidin-4-yl)-3-(4-(trifluoromethoxy)phenyl)urea]	99%
CC(C)(C)S(=O)(=O)N1CCC(NC(=O)NC23CC4CC(CC(C4)C2)C3)CC1 [Compound 7-78, 1-(1-(tert-butylsulfonyl)piperidin-4-yl)-3-adamantylurea]	95%
O=C(Nc1ccc(OC(F)(F)F)cc1)NC1CCN(C(=O)N2CCOCC2)CC1 [Compound 7-79, 1-(1-(morpholine-4-carbonyl)piperidin-4-yl)-3-(4-(trifluoromethoxy)phenyl)urea]	98%
CC(C)(C)C(=O)N1CCC(NC(=O)Nc2ccc(C#N)cc2)CC1 [Compound 7-81, 1-(4-cyanophenyl)-3-(1-pivaloylpiperidin-4-yl)urea]	91%
O=C(NC1CCN(C(=O)N2CCOCC2)CC1)NC12CC3CC(CC(C3)C1)C2 [Compound 7-82, 1-adamantyl-3-(1-(morpholine-4-carbonyl)piperidin-4-yl)urea]	95%
CC(=O)N1CCC(NC(=O)NC2CCCCCCC2)CC1 [Compound 7-84, 1-(1-acetylpiperidin-4-yl)-3-cyclooctylurea]	92%

Same assay, conditions: Inhibition Conc. 500 nM

SMILES	% inh.
O=C(NC1CCCCC1)NC1CCN(C(=O)CCCN2CCOCC2)CC1 [Compound 7-61, 1-cyclohexyl-3-(1-(4-morpholinobutanoyl)piperidin-4-yl)urea]	83%
CNS(=O)(=O)c1cccc(C(=O)N2CCC(NC(=O)Cc3ccc(Cl)cc3)CC2)c1 [Compound 7-85, 2-(4-chlorophenyl)-N-(1-(3-(N-methyl-sulfamoyl)benzoyl)-piperidin-4-yl)acetamide]	73%

Same assay, conditions: Inhibition Conc. 2000 nM

SMILES	% inh.
CC(=O)N1CCC(NC(=O)Nc2ccc(S(C)(=O)=O)cc2)CC1 [Compound 7-60, 1-(1-acetylpiperidin-4-yl)-3-(4-(methylsulfonyl)phenyl)urea]	33%
CC(=O)N1CCC(NC(=O)NC2CCC(F)(F)CC2)CC1 [Compound 7-62, 1-(1-acetylpiperidin-4-yl)-3-(4,4-difluorocyclohexyl)urea]	82%
CC(=O)N1CCC(NC(=O)NC2CCC2)CC1 [Compound 7-63, 1-(1-acetylpiperidin-4-yl)-3-cyclobutylurea]	76%
CN(C)c1ccc(NC(=O)NC2CCN(C(=O)OC(C)(C)C)CC2)cc1 [Compound 7-65, tert-butyl 4-(3-(4-(dimethylamino)phenyl)ureido)piperidine-1-carboxylate]	95%
COC(=O)c1ccc(NC(=O)NC2CCN(C(=O)OC(C)(C)C)CC2)cc1 [Compound 7-67, tert-butyl 4-(3-(4-(methoxycarbonyl)phenyl)ureido)piperidine-1-carboxylate]	96%
CC(C)(C)OC(=O)N1CCC(NC(=O)Nc2ccc(CN3CCCC3)cc2)CC1 [Compound 7-68, tert-butyl 4-(3-(4-(pyrrolidin-1-ylmethyl)phenyl)ureido)piperidine-1-carboxylate]	93%
COC(=O)c1ccc(NC(=O)NC2CCN(C(C)=O)CC2)cc1 [Compound 7-69, methyl 4-(3-(1-acetylpiperidin-4-yl)ureido)benzoate]	69%
CC(C)(C)C(=O)N1CCC(NC(=O)Nc2ccc(S(C)(=O)=O)cc2)CC1 [Compound 7-70, 1-(4-(methylsulfonyl)phenyl)-3-(1-pivaloylpiperidin-4-yl)urea]	90%
CC(=O)N1CCC(NC(=O)Nc2ccc(C#N)cc2)CC1 [Compound 7-80, 1-(1-acetylpiperidin-4-yl)-3-(4-cyanophenyl)urea]	80%
CC(=O)N1CCC(NC(=O)NC2CCC3(CCCC3)CC2)CC1 [Compound 7-83, 1-(1-acetylpiperidin-4-yl)-3-(spiro[4.5]decan-8-yl)urea]	100%
CC(C)(C)OC(=O)N1CCC(NC(=O)Nc2ccc(N3CCOCC3)cc2)CC1 [Compound 7-86, tert-butyl 4-(3-(4-morpholinophenyl)ureido)piperidine-1-carboxylate]	90%
CC(=O)N1CCC(NC(=O)Nc2ccc(N3CCOCC3)cc2)CC1 [Compound 7-87, 1-(1-acetylpiperidin-4-yl)-3-(4-morpholinophenyl)urea]	0%
CC(=O)N1CCC(NC(=O)NC2CCN(C(=O)OC(C)(C)C)CC2)CC1 [Compound 8-2, tert-butyl 4-(3-(1-acetylpiperidin-4-yl)ureido)piperidine-1-carboxylate]	86%
CC(=O)N1CCC(NC(=O)NC2CCN(C)CC2)CC1 [Compound 8-3, 1-(1-acetylpiperidin-4-yl)-3-(1-methylpiperidin-4-yl)urea]	0%
CC(=O)N1CCC(NC(=O)NC2CCOCC2)CC1 [Compound 8-4, 1-(1-acetylpiperidin-4-yl)-3-(tetrahydro-2H-pyran-4-yl)urea]	23%
CC(=O)N1CCC(NC(=O)NC2CCS(=O)(=O)CC2)CC1 [Compound 8-5, 1-(1-acetylpiperidin-4-yl)-3-(1,1-dioxo-tetrahydro-2H-thiopyran-4-yl)urea]	23%
CC(=O)N1CCC(NC(=O)NC2CCN(C(=O)C(C)(C)C)CC2)CC1 [Compound 8-6, 1-(1-acetylpiperidin-4-yl)-3-(1-pivaloylpiperidin-4-yl)urea]	69%

Same assay, conditions: Inhibition Conc. 5000 nM

SMILES	% inh.
CS(=O)(=O)N1CCC(NC(=O)NC2CCN(S(C)(=O)=O)CC2)CC1 [Compound 8-1, 1,3-bis(1-(methylsulfonyl)piperidin-4-yl)urea]	79%
